# What was measured:
# [1] = test system: OVCAR-3 (human Ovarian Carcinoma cell line) mouse xenograft; assay: OVCAR-3 mouse xenograft, alone or with Carboplatin (Example 16); assay type: in vivo; conditions: 3 at 4 mg/kg and 6 mg/kg weekly; Carboplatin 40 mg/kg weekly in combination; 3 weeks i.v.
# Procedure: An OVCAR-3 (human Ovarian Carcinoma cell line) mouse xenograft cancer model was used to assess the anti-tumour efficacy properties of 3 alone or in combination with Carboplatin, compared to Gemcitabine, alone or in combination with Carboplatin. NSG Mice were inoculated and tumours sized as described above. On day twenty nine after implantation, mice with similar sized tumours (mean tumour volume 100 mm^3) were randomised into 10 groups of 10 animals. Gemcitabine and 3 were prepared as described above. DBLCarboplatin (Hospira) was dissolved in saline solution and further diluted in 5% glucose immediately prior to dosing.
# Gemcitabine was administered twice weekly and dendrimers and carboplatin were administered weekly for 3 weeks via tail vein i.v. injection, at 0.1 ml/10 g body weight.
# [2] = test system: CAPAN-1 tumour xenografts; assay: CAPAN-1 mouse xenograft, alone or with Abraxane or DEP-DTX (Examples 13a, 13b); assay type: in vivo
# Procedure: Mice were inoculated and tumours sized as described above. On day nineteen after implantation, mice with similar sized tumours (mean tumour volume 100 mm^3) were randomised into 7 groups of 10 animals. […] Abraxane® was dissolved in saline solution immediately prior to dosing.
# Abraxane®, gemcitabine and dendrimers were administered at days 1, 10, and 17 via tail vein i.v. injection, at 0.1 ml/10 g body weight.
# In an extension of Example 13a, two additional groups of mice were prepared and dosed to assess the anti-tumour efficacy properties of a taxane-dendrimer combined with a nucleoside analogue-dendrimer (e.g. 6). Mice were inoculated and tumours sized as described above.
# Dendrimers were administered weekly via tail vein i.v. injection, at 0.1 ml/10 g body weight for 3 weeks.
# All statistical analyses were performed using GraphPad Prism 8.1.
substance,measurement,setting,value
"[BHA Lys][Lys]30[Lys]32 [Compound 3, [BHA Lys][Lys]30[Lys]32 [(α-NH-TDA-Gemcitabine)32 (ε-NHPEG˜2100)32]]",anti-tumour efficacy compared to other groups (FIG. 9),[1],more effective than Gemcitabine
same,anti-tumour efficacy compared to other groups at day 29,[2]; day 29,significantly more effective than Gemcitabine
same,Tumour Growth inhibition (%) v vehicle at day 29,"[2]; day 29, i.v., Gemcitabine 120, Abraxane 40, 3 at 6.5, 6 at 5 (day 1) then 4, DEP-DTX 24 (10 in combination) mg/kg",103%
same,anti-tumour efficacy compared to other groups over the dosing study (FIG. 6),[2]; out to day 82,more effective than Gemcitabine and also more effective than the combination of gemcitabine and Abraxane®

# From patent publication US12616711B2, “Therapeutic dendrimer” (Starpharma Pty Ltd, priority 2019, dated 2026)
